Assay [1] has as its system A549-EGFRB cells. The experiment in a line: EGFRB assay, nuclei count readout. The class given is cell-based. The settings on record: for HTS % inhibition at 10 μM Nuclei count: pilot screen, 10 μM compound, average of duplicates; for inhibition at 10 µM: read-out: HTS % inhibition at 10 μM Nuclei count.
Assay [2] has as its system EGFR activation (granule formation) in A549-EGFRB cells. As to the kind of experiment: EGFRB assay, granule count readout. The class given is cell-based. The settings on record: for IC50 / EC50: read-out: IC50 or EC50 (nM) Granule count; for inhibition at 10 µM: read-out: HTS % inhibition at 10 μM Granule count.
The target of assay [3] is recombinant EGFR kinase. The conditions noted are these: read-out: Reported IC50 toward recombinant EGFR kinase; cited from earlier work.
Assay [4] deals with SRC kinase (Homo sapiens, UniProt P12931). The experiment in a line: Luminescence ADP production kinase assay, SRC. The conditions noted are these: for Luminescence ADP kinase assay IC50 SRC: 50 nM enzyme, 200 μM ATP, * = partial inhibition. Type of assay: biochemical.
Sequence of SRC kinase (P12931 whole entry): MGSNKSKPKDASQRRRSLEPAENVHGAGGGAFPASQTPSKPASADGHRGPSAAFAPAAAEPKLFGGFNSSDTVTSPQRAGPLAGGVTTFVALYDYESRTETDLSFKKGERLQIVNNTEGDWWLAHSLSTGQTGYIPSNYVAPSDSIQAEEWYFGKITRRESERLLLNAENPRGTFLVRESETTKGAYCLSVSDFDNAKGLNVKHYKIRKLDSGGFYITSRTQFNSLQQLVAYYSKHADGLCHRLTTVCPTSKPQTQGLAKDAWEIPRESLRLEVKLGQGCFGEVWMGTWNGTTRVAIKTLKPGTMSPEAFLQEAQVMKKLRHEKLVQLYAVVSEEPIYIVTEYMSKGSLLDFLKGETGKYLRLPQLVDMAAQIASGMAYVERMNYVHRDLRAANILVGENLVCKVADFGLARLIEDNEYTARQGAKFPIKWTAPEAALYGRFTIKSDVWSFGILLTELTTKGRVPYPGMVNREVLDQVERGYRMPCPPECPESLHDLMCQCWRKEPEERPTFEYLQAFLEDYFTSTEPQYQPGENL
Assay [5] deals with VEGFR1 kinase (Homo sapiens, UniProt P17948). The experiment in a line: Luminescence ADP production kinase assay, VEGFR1. The settings on record: for Luminescence ADP kinase assay IC50 VEGFR1: 50 nM enzyme, 200 μM ATP, * = partial inhibition.
Sequence of VEGFR1 kinase (P17948 27-1338): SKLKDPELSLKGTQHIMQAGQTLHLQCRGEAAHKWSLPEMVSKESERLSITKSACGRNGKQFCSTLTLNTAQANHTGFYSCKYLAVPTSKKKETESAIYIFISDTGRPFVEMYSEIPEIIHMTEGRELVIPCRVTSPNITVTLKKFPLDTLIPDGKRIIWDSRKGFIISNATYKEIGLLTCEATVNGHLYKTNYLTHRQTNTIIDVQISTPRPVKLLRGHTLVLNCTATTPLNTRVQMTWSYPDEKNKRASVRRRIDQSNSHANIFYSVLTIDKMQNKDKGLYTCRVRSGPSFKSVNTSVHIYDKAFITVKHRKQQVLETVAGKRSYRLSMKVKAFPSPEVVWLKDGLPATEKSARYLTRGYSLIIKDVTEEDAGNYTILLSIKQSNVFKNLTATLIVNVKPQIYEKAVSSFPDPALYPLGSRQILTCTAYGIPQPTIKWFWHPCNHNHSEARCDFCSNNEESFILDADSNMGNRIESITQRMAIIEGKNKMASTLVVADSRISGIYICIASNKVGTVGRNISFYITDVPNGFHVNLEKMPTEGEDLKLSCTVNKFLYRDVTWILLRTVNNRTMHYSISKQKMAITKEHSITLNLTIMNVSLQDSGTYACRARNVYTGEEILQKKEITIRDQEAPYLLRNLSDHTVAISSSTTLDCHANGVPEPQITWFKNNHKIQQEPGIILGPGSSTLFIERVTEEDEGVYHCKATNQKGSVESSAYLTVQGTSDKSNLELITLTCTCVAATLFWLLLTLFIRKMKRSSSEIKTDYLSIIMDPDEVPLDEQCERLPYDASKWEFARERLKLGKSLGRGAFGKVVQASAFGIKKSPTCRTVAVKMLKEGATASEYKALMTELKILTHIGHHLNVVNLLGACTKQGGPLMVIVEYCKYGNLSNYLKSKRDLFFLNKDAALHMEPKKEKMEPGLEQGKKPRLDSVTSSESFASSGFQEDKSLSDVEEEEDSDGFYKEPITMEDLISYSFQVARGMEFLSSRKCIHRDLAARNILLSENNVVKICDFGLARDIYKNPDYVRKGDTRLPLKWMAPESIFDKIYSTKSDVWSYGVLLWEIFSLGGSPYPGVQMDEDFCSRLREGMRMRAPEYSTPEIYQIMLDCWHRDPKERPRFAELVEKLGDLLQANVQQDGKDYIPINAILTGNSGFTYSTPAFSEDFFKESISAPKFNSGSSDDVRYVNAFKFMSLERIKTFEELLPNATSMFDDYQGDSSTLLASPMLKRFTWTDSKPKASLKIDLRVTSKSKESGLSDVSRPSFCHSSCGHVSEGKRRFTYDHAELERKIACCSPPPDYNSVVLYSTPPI
The target in assay [6] is ABL kinase (Homo sapiens, UniProt P00519). The experiment in a line: Luminescence ADP production kinase assay, ABL. Type of assay: biochemical. The settings on record: for Luminescence ADP kinase assay IC50 ABL: 50 nM enzyme, 200 μM ATP, * = partial inhibition.
Sequence of ABL kinase (P00519 whole entry): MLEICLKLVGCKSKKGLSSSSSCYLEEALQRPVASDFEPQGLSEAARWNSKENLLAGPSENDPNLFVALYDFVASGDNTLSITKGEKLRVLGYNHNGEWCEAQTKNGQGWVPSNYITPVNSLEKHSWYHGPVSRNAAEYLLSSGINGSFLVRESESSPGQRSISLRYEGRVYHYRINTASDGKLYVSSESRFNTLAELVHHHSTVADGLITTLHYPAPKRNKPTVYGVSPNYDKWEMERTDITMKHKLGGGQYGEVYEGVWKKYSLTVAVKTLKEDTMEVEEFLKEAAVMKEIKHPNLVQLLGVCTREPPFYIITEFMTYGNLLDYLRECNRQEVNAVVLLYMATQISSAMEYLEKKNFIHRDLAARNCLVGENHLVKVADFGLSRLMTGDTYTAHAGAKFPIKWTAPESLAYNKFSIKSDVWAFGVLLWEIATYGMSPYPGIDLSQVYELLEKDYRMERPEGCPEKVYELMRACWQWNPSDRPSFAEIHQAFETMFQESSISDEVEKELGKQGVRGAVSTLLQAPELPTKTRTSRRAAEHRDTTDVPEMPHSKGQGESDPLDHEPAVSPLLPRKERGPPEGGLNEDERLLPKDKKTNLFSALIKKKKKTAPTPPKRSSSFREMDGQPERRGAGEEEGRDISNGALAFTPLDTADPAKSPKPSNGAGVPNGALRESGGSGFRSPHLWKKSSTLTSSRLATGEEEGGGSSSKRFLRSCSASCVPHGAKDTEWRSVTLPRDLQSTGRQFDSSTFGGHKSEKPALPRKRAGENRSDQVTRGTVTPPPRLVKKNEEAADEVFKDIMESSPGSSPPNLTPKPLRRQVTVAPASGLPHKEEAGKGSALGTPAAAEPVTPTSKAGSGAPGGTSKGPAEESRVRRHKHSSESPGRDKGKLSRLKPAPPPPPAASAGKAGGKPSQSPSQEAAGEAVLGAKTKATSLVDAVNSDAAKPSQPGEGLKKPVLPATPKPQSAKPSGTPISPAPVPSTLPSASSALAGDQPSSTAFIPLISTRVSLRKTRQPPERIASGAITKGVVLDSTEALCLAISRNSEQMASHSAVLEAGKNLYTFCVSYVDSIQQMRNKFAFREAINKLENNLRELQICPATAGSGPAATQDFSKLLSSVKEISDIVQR
Assay [7] deals with EGFR kinase (Homo sapiens, UniProt P00533). As to the kind of experiment: Luminescence ADP production kinase assay, EGFR. The settings on record: for Luminescence ADP kinase assay IC50 EGFR: 50 nM enzyme, 200 μM ATP, low limit 10 nM, * = partial inhibition. The class given is biochemical.
Sequence of EGFR kinase (P00533 25-1210): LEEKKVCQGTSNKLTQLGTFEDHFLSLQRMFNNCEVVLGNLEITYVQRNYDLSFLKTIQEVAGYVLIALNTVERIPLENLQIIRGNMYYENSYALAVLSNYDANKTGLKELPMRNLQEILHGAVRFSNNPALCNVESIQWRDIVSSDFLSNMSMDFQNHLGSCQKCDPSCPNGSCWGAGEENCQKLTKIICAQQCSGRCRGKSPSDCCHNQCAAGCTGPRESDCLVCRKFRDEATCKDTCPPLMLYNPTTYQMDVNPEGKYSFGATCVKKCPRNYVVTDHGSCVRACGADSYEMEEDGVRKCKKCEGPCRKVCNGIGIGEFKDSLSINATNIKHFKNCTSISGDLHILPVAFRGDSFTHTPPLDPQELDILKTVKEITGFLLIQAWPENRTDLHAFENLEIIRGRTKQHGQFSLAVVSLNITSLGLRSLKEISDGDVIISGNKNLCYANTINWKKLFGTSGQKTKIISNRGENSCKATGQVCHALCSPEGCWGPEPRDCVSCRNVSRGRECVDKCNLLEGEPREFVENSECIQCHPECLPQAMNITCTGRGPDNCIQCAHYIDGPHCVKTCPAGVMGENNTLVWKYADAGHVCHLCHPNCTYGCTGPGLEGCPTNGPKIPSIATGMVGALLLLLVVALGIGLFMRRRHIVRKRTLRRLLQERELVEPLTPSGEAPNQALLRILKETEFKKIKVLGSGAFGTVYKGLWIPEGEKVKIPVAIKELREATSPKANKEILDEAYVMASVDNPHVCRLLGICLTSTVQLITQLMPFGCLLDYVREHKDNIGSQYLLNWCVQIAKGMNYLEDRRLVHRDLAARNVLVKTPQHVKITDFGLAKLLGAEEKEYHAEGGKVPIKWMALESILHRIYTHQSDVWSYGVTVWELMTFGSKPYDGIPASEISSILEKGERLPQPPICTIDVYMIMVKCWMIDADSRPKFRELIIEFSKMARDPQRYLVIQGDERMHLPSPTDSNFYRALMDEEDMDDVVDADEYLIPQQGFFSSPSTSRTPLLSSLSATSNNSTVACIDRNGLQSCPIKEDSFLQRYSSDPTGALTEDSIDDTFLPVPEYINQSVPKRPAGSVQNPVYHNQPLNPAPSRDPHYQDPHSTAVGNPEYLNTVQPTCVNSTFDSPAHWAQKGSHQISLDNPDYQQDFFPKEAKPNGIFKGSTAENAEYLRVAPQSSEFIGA
Assay [8] relates to HCC4011 cells (L858R EGFR mutation). The experiment in a line: Alamar Blue viability assay, HCC4011. The class given is cell-based, human. The conditions noted are these: for IC50: Homo sapiens, HCC4011, 120 h, read-out: Alamar Blue viability assay IC50 HCC4011; for Alamar Blue viability assay IC50 HCC4011: 120 hours incubation, * = partial inhibition.
The test system of assay [9] is H2030 cells (wild type EGFR). The experiment in a line: Alamar Blue viability assay, H2030. The class given is cell-based. The conditions noted are these: for IC50: Homo sapiens, NCI-H2030, 120 h, read-out: Alamar Blue viability assay IC50 H2030; for Alamar Blue viability assay IC50 H2030: 120 hours incubation, * = partial inhibition. (Resazurin is reduced to fluorescent resorufin, in cell work by metabolically active cells.)

Assay [10] concerns H3255 cells (L858R EGFR mutation). The experiment in a line: Alamar Blue viability assay, H3255. The class given is cell-based, human. The settings on record: for IC50: Homo sapiens, NCI-H3255, 120 h, read-out: Alamar Blue viability assay IC50 H3255; for Alamar Blue viability assay IC50 H3255: 120 hours incubation, * = partial inhibition.
In assay [11] the test system is A549 cells (wild type EGFR). As to the kind of experiment: Alamar Blue viability assay, A549. Type of assay: cell-based. The conditions noted are these: for IC50: Homo sapiens, A549, 120 h, read-out: Alamar Blue viability assay IC50 A549; for Alamar Blue viability assay IC50 A549: 120 hours incubation, * = partial inhibition.
The mark [12] stands for this setting: inhibitors, dose response up to 10 μM, N.E. = no effect, * = partial inhibition.
Setting [13] is: inhibitors, dose response up to 10 μM, ±standard deviation, N.E. = no effect.
Setting [14] is: activators, dose response up to 10 μM, N.E. = no effect.

Like-named read-outs stand apart in the source and are kept apart here.

On to `CO[C@H]1/C=C\C=C(/C)C(=O)NC2=CC(=O)C(NCCN(C)C)=C(C[C@@H](C)C[C@H](OC)[C@H](O)[C@@H](C)/C=C(\C)[C@@H]1OC(N)=O)C2=O` [17-DMAG, 17-dimethylaminoethylamino-17-demethoxy-geldanamycin], for which the “IC50 or EC50 (nM) Nuclei count” value in assay [1] (setting [12]) was “N.E”. Besides, the “HTS % inhibition at 10 μM Nuclei count” value in assay [1] worked out at 33%. The IC50 in [2] (setting [13]) came out at 29 ± 3 nM.

With `CC(C)[C@H](CO)Nc1nc(Nc2cc(N)cc(Cl)c2)c2ncn(C(C)C)c2n1` [Aminopurvalanol A, aminopurvalanol A], the “IC50 or EC50 (nM) Nuclei count” value in assay [1] (setting [12]) is “N.E.^*”. The “HTS % inhibition at 10 μM Nuclei count” value in [1] was 40%. Also, the IC50 in [2] (setting [13]) is 910 ± 400 nM.

In the case of `CCN(CC)CC1CCN(c2ncc3ncnc(Nc4ccc(F)c(Cl)c4)c3n2)CC1.Cl.Cl` [BIBU 1361], the “IC50 or EC50 (nM) Nuclei count” value in assay [1] (setting [12]) was “N.E”. For the same compound, the “HTS % inhibition at 10 μM Nuclei count” value in assay [1] amounted to 3%. Besides, the IC50 is 3 nM in [3] and 38 ± 7 nM in assay [2] (setting [13]).

`C[C@H]1C[C@H]2[C@@H]3CCC4=CC(=O)C=C[C@]4(C)[C@@]3(Cl)[C@@H](O)C[C@]2(C)[C@@]1(O)C(=O)CO` [Beclomethasone, beclomethasone]: the “IC50 or EC50 (nM) Nuclei count” value in assay [1] (setting [14]) is recorded as “N.E”. For the same compound, in assay [1], the “HTS % inhibition at 10 μM Nuclei count” value came out at 16%. Moreover, in [4], the “Luminescence ADP kinase assay IC50 SRC” value is listed as “no inhibitory effects”. For the same compound, the EC50 in [2] (activators of granule formation, dose response up to 10 μM, ±standard deviation) was determined as 42 ± 7 nM. For the same compound, in [5], the “Luminescence ADP kinase assay IC50 VEGFR1” value is “no inhibitory effects”. Further, the “Luminescence ADP kinase assay IC50 ABL” value in assay [6] is recorded as “no inhibitory effects”. For the same compound, the “Luminescence ADP kinase assay IC50 EGFR” value in assay [7] is recorded as “no inhibitory effects”.

On to `CCc1cc(-c2n[nH]c(C)c2-c2ccc3c(c2)OCCO3)c(O)cc1O` [CCT 018159], for which, in assay [2] (at 5 and 10 μM), the “Inhibition of granule formation in dose response” value is listed as “partial inhibition”.

For `CC[C@@]1(O)C(=O)OCc2c1cc1n(c2=O)Cc2cc3ccccc3nc2-1` [Camptothecin, camptothecin], the “IC50 or EC50 (nM) Nuclei count” value in assay [1] (setting [12]) was “N.E.^*”. The inhibition at 10 µM was found to be 40% in assay [1] and 81% in assay [2]. Moreover, the IC50 is more than 10000 nM in assay [4]; 720 ± 100 nM in assay [2]; 290 ± 40 nM in assay [8]; more than 10000 nM in assay [5]; more than 10000 nM in assay [6]; 17 ± 5 nM in [9]. Besides, the IC50 in [10] is 390 ± 50 nM; in assay [11], 35 ± 50 nM; in [7], more than 10000 nM.

Consider `COC(=O)/C=C/c1cc(O)ccc1O` [Erbstatin analog], for which, in assay [1] (setting [12]), the “IC50 or EC50 (nM) Nuclei count” value is given as “N.E.^*”. Also, the “HTS % inhibition at 10 μM Nuclei count” value in [1] stood at 2%. In addition, the “Luminescence ADP kinase assay IC50 SRC” value in assay [4] was “inactive”. For the same compound, the “IC50 or EC50 (nM) Granule count” value in assay [2] (setting [13]) is given as “N.E”. Moreover, in assay [8], the “Alamar Blue viability assay IC50 HCC4011” value is “only partial inhibition”. For the same compound, in assay [5], the “Luminescence ADP kinase assay IC50 VEGFR1” value is “inactive”. The “Luminescence ADP kinase assay IC50 ABL” value in assay [6] is “inactive”. Also, the “Alamar Blue viability assay IC50 H2030” value in [9] is given as “only partial inhibition”. Besides, the “Alamar Blue viability assay IC50 H3255” value in [10] is recorded as “only partial inhibition”. Besides, in [11], the “Alamar Blue viability assay IC50 A549” value was “only partial inhibition”. Also, the “Luminescence ADP kinase assay IC50 EGFR” value in assay [7] was “inactive”.

Take `C#Cc1cccc(Nc2ncnc3cc(OCCOC)c(OCCOC)cc23)c1` [Erlotinib, erlotinib]: in assay [1], the “IC50 or EC50 (nM) Nuclei count” value is recorded as “N.E” and the inhibition at 10 µM stood at 36%.

On to `CC1(C)O[C@@H]2C[C@H]3[C@@H]4C[C@H](F)C5=CC(=O)CC[C@]5(C)[C@H]4[C@@H](O)C[C@]3(C)[C@]2(C(=O)CO)O1` [Flurandrenolide, flurandrenolide], for which the “IC50 or EC50 (nM) Nuclei count” value in assay [1] (setting [14]) is “N.E”. The inhibition at 10 µM in assay [1] was found to be 7%. For the same compound, in [4], the IC50 is more than 10000 nM and the “Luminescence ADP kinase assay IC50 SRC” value is “no inhibitory effects”. Also, in assay [2], the inhibition at 10 µM is -165% and the EC50 was found to be 23 ± 20 nM. Moreover, in [8], the “Alamar Blue viability assay IC50 HCC4011” value was “inactive” and the IC50 was more than 10000 nM. Besides, in assay [5], the IC50 was more than 10000 nM and the “Luminescence ADP kinase assay IC50 VEGFR1” value is on record as “no inhibitory effects”. Moreover, in [9], the “Alamar Blue viability assay IC50 H2030” value is “inactive” and the IC50 is more than 10000 nM. In assay [10], the “Alamar Blue viability assay IC50 H3255” value was “inactive” and the IC50 is more than 10000 nM. In addition, in assay [11], the “Alamar Blue viability assay IC50 A549” value was “inactive” and the IC50 is more than 10000 nM. In [7], the IC50 is more than 10000 nM and the “Luminescence ADP kinase assay IC50 EGFR” value is “no inhibitory effects”.

Regarding `CN(C)c1cc2c(Nc3ccc4c(cnn4Cc4ccccc4)c3)ncnc2cn1` [GW 2974], the “IC50 or EC50 (nM) Nuclei count” value in assay [1] (setting [12]) is “N.E”. The “HTS % inhibition at 10 μM Nuclei count” value in assay [1] is 18%. Besides, the IC50 in assay [2] (setting [13]) came out at 1300 nM.

`CS(=O)(=O)CCNCc1nc(-c2ccc3ncnc(Nc4ccc(OCc5cccc(F)c5)c(Cl)c4)c3c2)cs1` [GW 583340]: the “IC50 or EC50 (nM) Nuclei count” value in assay [1] (setting [12]) is “N.E”. Further, the inhibition at 10 µM was 26% in assay [1] and 94% in [2]. Also, the IC50 is more than 10000 nM in assay [4]; 2000 nM in [2]; 2000 ± 200 nM in assay [8]; more than 10000 nM in [5]; more than 10000 nM in assay [6]; more than 10000 nM in assay [9]. For the same compound, the results for the IC50 in assay [10], in assay [11] and in assay [7] were 960 ± 60 nM, more than 10000 nM and 1300 ± 100 nM, respectively.

`CS(=O)(=O)CCNCc1ccc(-c2ccc3ncnc(Nc4ccc(OCc5cccc(F)c5)c(Cl)c4)c3c2)o1` [Lapatinib, lapatinib]: the “IC50 or EC50 (nM) Nuclei count” value in assay [1] is “N.E”. The inhibition at 10 µM came out at 0% in assay [1] and 91% in assay [2]. Further, the IC50 is 590 ± 30 nM in assay [2]; 1500 ± 100 nM in assay [8]; more than 10000 nM in [9]; 1200 ± 100 nM in [10]; more than 10000 nM in assay [11].

For the compound `COc1cc2ncnc(Nc3cccc(Br)c3)c2cc1OC` [PD 153035], in [1], the “IC50 or EC50 (nM) Nuclei count” value is “N.E”. The inhibition at 10 µM in [1] stood at 12%; in assay [2], 97%. The IC50 in assay [4] is more than 10000 nM; in assay [2], 91 ± 20 nM; in assay [8], 48 ± 12 nM; in [5] it was more than 10000 nM; in assay [9] it was more than 10000 nM; in [10] it was 72 ± 12 nM. Moreover, in assay [11], the IC50 is more than 10000 nM.

With `CO[C@@H]1[C@H](N(C)C(=O)c2ccccc2)C[C@H]2O[C@]1(C)n1c3ccccc3c3c4c(c5c6ccccc6n2c5c31)C(=O)NC4` [PKC 412], in assay [2], the IC50 was determined as 1300 nM.

Turning to `COc1cc2ncnc(Nc3cccc(Cl)c3)c2cc1OC` [Tyrphostin AG 1478], the “IC50 or EC50 (nM) Nuclei count” value in assay [1] (setting [12]) is “N.E”. Also, the inhibition at 10 µM in assay [1] came to 12%; in assay [2] it was 94%. The IC50 in assay [4] was 2600 ± 1300 nM; in assay [2], 65 ± 8 nM; in assay [8], 33 ± 7 nM; in [5], more than 10000 nM; in assay [6], 2000 ± 600 nM; in assay [9], more than 10000 nM. The values for the IC50 in assay [10] and in [11] were 49 ± 1 nM and more than 10000 nM, respectively.

Take `COc1cc2ncnc(Nc3ccc(Cl)cc3F)c2cc1OC` [ZM-306416]: in assay [1] (setting [12]), the “IC50 or EC50 (nM) Nuclei count” value was “N.E”. For the same compound, the “HTS % inhibition at 10 μM Nuclei count” value in [1] was found to be 21%. The IC50 in assay [2] (setting [13]) came to 670 ± 200 nM. Also, the “Alamar Blue viability assay IC50 H2030” value in [9] was “inactive”. Also, the “Alamar Blue viability assay IC50 A549” value in assay [11] is “inactive”.

By IC50 is commonly meant the concentration that gives 50% inhibition. Usually EC50 stands for the concentration that produces a half-maximal response. What is called inhibition is the relative decrease from the control value, in per cent.
